Measurements reported in BindingDB's records for doi:10.1016/j.bmcl.2004.04.008 (Fudan University, 2004).

Assays:
[1] = Inhibitory concentration against SO561945 (HIV 1 mutant RT) viral infection of MT-4 cells
[2] = as above; remark: listed apart in the source
[3] = Concentration required to protect the cell against HIV-1 strain IIIB viral cytopathogenicity by 50% in MT-4 cells

| Structure (SMILES) | IC50 [1] [nM] | IC50 [2] [µM] | IC50 [3] [nM] |
| --- | --- | --- | --- |
| CCc1c(Cc2cccc3ccccc23)nc(SCC(=O)OC)[nH]c1=O | 4720 | – | – |
| COC(=O)CSc1nc(Cc2cccc3ccccc23)c(C(C)C)c(=O)[nH]1 | – | > 179 | 4490 |
| COC(=O)CSc1nc(Cc2cccc3ccccc23)c(C)c(=O)[nH]1 | 6990 | – | – |
| Cc1ccc(C(=O)CSc2nc(Cc3cccc4ccccc34)c(C(C)C)c(=O)[nH]2)cc1 | 240 | – | – |
| CC(C)c1c(Cc2cccc3ccccc23)nc(SCC(=O)c2ccc(F)cc2)[nH]c1=O | – | 188 | 78 |
| COc1ccc(C(=O)CSc2nc(Cc3cccc4ccccc34)c(C(C)C)c(=O)[nH]2)cc1 | – | 5.82 | 30 |
| CCc1c(Cc2cccc3ccccc23)nc(SCC(=O)c2ccc(Cl)cc2)[nH]c1=O | – | > 56 | 260 |
| CCc1c(Cc2cccc3ccccc23)nc(SCC(=O)c2ccc(F)cc2)[nH]c1=O | – | 24.2 | 78 |
| Cc1ccc(C(=O)CSc2nc(Cc3cccc4ccccc34)c(C)c(=O)[nH]2)cc1 | 670 | – | – |
| CCOC(=O)CSc1nc(Cc2cccc3ccccc23)c(C)c(=O)[nH]1 | 7000 | – | – |
| CC(=O)CSc1nc(Cc2cccc3ccccc23)c(C(C)C)c(=O)[nH]1 | – | > 43.1 | 410 |
| CC(C)c1c(Cc2cccc3ccccc23)nc(SCC(=O)c2ccccc2)[nH]c1=O | – | 19.6 | 46 |
| CCOC(=O)CSc1nc(Cc2cccc3ccccc23)c(C(C)C)c(=O)[nH]1 | 1410 | > 175 | – |
| CC(=O)CSc1nc(Cc2cccc3ccccc23)c(C)c(=O)[nH]1 | 1120 | – | – |
| Cc1c(Cc2cccc3ccccc23)nc(SCC(=O)c2ccc(Cl)cc2)[nH]c1=O | 550 | – | – |
| CC(C)c1c(Cc2cccc3ccccc23)nc(SCC(=O)c2ccc(Cl)cc2)[nH]c1=O | > 270000 | – | 320 |
| O=c1[nH]cnc2c1ncn2[C@H]1CC[C@@H](CO)O1 [BMY-40900] | – | 7.15 | 5370 |
| Cc1c(Sc2ccccc2)n(COCCO)c(=O)[nH]c1=O | – | > 405 | 5060 |
| Cc1c(Cc2cccc3ccccc23)nc(SCC(=O)c2ccc(F)cc2)[nH]c1=O | 180 | – | – |
| CCc1c(Cc2cccc3ccccc23)nc(SCC(=O)c2ccc(C)cc2)[nH]c1=O | 320 | – | – |
| Cc1ccc(C(=O)CSc2nc(Cc3cccc4ccccc34)c(C(C)C)c(=O)[nH]2)c(C)c1 | 240 | 2.67 | – |
| COc1ccc(C(=O)CSc2nc(Cc3cccc4ccccc34)c(C)c(=O)[nH]2)cc1 | 370 | – | – |
| CCc1c(Cc2cccc3ccccc23)nc(SCC(=O)c2ccc(OC)cc2)[nH]c1=O | 45 | > 178 | – |
